Test results as given in patent US20230028658A1, “EXPANDED DOSAGE REGIMENS FOR INTEGRIN INHIBITORS” (Pliant Therapeutics, Inc., priority 2021, published 2023).

System: healthy mice
Assay: pSMAD3/SMAD3 in lung tissue and BALF of healthy mice
Assay type: in vivo
Details: 4 days of compound 5 treatment, FIG. 4B
Text: It has been previously shown that inhibition of αvβ6 in the lung can be detected though measurement of phospho-SMAD (pSMAD) in alveolar macrophages. Alveolar macrophages are known to operate in a unique niche in the lung, distinct from interstitial macrophages. SMAD3 is a downstream target of the active TGF-β cytokine binding its receptor and in alveolar macrophages it is phosphorylated by homoeostatic levels of TGF-β. Accordingly, it was desirable to know whether inhibition of TGF-β activation using the disclosed compounds would result in reduced SMAD2 and SMAD3 phosphorylation.
Mice (C57BL/6) were divided into healthy (n=15), vehicle-treated (n=15), and test article-treated (n=15 per dose) groups. […] […] […] […] […] […] […] Samples were prepared for analysis either directly from lung tissue, or by bronchoalveolar lavage, which washes out the bronchiolar and alveolar space with saline to produce a bronchoalveolar lavage fluid (BALF) in which 80-90% of cells are alveolar macrophages.
FIG. 4A is a graph of PSMAD3/SMAD3 in lung tissue from healthy mice administered PBS vehicle and varying levels of compound 5 for 4 days. FIG. 4B is a graph of PSMAD3/SMAD3 in BALF drawn from the same healthy mice administered PBS vehicle and varying levels of compound 5 for 4 days.

## COCCN(CCCCc1ccc2c(n1)NCCC2)CC[C@H](Nc1ncnc2ccccc12)C(=O)O [Compound 5, (S)-4-((2-methoxyethyl) (4-(5,6,7,8-tetrahydro-1,8-naphthyridin-2-yl)butyl)amino)-2-(quinazolin-4-ylamino) butanoic acid]
  PSMAD3/SMAD3 in cells isolated from BALF: approximately 50 % of the untreated levels
